# Test results as given in patent US7910622B2, “Modulation of bacterial quorum sensing with synthetic ligands” (Wisconsin Alumni Research Foundation, priority 2007, dated 2011).
# Where “and” joins values, the source holds several entries; their conditions need not be identical. Equal entries are not always repeated.
# How the values were obtained:
# LuxR [1] = molecular target: T1, LuxR (Aliivibrio fischeri, UniProt P35327); experiment: cell-based; format: cell-based, Vibrio fischeri
# T1 construct: a Δ-luxI derivative of V. fischeri ES114, in which the native lux operon behaves as the bioluminescent reporter; endogenous in cells; host or cells: V. fischeri ES114 (Δ-luxI)
# Summary of the method: (§1)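 Whole-cell luminescence reporter in V. fischeri ES114 (WT, Δ-luxI or Δ-luxR) or E. coli, overnight cultures diluted 1:10 and grown with compound at RT (E. coli 30° C) to OD600 0.35-0.4 (4-6 h). Luminescence normalized to cell density, triplicates; EC50/IC50 from sigmoidal fit.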
# [2] = system: V. fischeri ES114 (Δ-luxR); experiment: Luminescence assay in Δ-luxR derivative of V. fischeri ES114; format: cell-based, Vibrio fischeri
# Method: (§2) Vibrio fischeri assay procedures. For primary agonism assays, an appropriate amount of concentrated control or PHL (11) stock solution, to give a final concentration of 200 μM, was added to wells in a 96-well multititer plate. An overnight culture of V. fischeri ES114 (WT, Δ-luxI or Δ-luxR) was diluted 1:10 with LBS medium. A-200 μL portion of the diluted culture was added to each well of the plate. Plates were grown at RT with shaking (200 rpm) until the OD600=0.35-0.4 (4-6 h). Luminescence then was measured and normalized to cell density per well. […] Similar methods were used for dose response assays, except the concentrations of controls and PHLs 11 used were between 0.02 and 2×10^5 nM. All assays were performed in triplicate. IC50 and EC50 values were calculated using GraphPad Prism software using a sigmoidal curve fit.
# LuxR [3] = molecular target: T1, LuxR; experiment: cell-based; set-up: species or system Vibrio fischeri; conditions: for EC50: LuxR EC50, V. fischeri ES114 (Δ-luxI)
# Summary of the method: as §1
# [4] = system: wild-type V. fischeri ES114; experiment: Luminescence dose response in wild-type V. fischeri ES114; format: cell-based, Vibrio fischeri; conditions: relative to OHHL
# Method: as §2
# Euprymna scolopes squid = experiment: Preliminary experiments in squid / invertebrate model systems (tolerance, activity in vivo)
# [5] = molecular target: QscR:DNA binding (PA1897 promoter) (Pseudomonas aeruginosa, UniProt G3XD77); conditions: EMSA
# From the text: We sought to obtain further insights into the mechanism of QscR modulation by non-native AHLs. […] We therefore performed electromobility shift assays (EMSA) on purified QscR and radiolabeled PA1897 promoter in the presence of selected QscR antagonists and 1.
# LasR [6] = molecular target: T2, LasR (Pseudomonas aeruginosa, UniProt P25084); experiment: cell-based; format: cell-based; conditions: E. coli-LasR; Library C primary antagonism screen
# T2 construct: expressed in transfected cells; host or cells: E. coli DH5α (pJN105L pSC11), arabinose-induced
# Summary of the method: (§3)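 E. coli DH5α carrying pJN105L/pSC11 grown to OD600 0.3, LasR expression induced with arabinose (4 mg/mL), then incubated with AHLs at 37 °C to OD600 0.45. LasR activity read by β-galactosidase reporter assay; IC50/EC50 from sigmoidal dose-response fits.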
# TraR = molecular target: T3, TraR (Agrobacterium tumefaciens, UniProt P33905); experiment: cell-based
# T3 construct: These strains lack their AHL synthase (I) genes, but retain their native R genes; endogenous in cells; host or cells: A. tumefaciens WCF47 (Δ-traI) with PtraI-lacZ plasmid pCF372
# LasR [7] = molecular target: T2, LasR; experiment: cell-based; conditions: E. coli-LasR; Library C primary agonism screen
# Summary of the method: as §3
# LuxR [8] = molecular target: T4, LuxR (Aliivibrio fischeri, UniProt P12746); experiment: LuxR luminescence antagonism and agonism assays in E. coli JM109 (pSB401); format: cell-based, Vibrio fischeri; conditions: EC50 of autoinducer in E. coli JM109 (pSB401)
# T4 construct: expressed in transfected cells; host or cells: E. coli JM109 (pSB401)
# Method: Competitive inhibition assays were performed in the presence of both OHHL and PHLs 11 (at a 1:1 ratio), while agonism assays were performed with PHLs alone.
# Luminescence assays. For agonism assays, an appropriate amount of AHL stock solution was added into a 96-well plate. […] A 200-μL portion of the diluted culture was added to each well of the plate. […] Luminescence was measured using a multilabel plate reader and normalized to cell density. […] All assays were performed in triplicate. Graphpad Prism software was used to calculate IC50 and EC50 values.
# E. coli assay procedures. […] An overnight culture of E. coli JM109 (pSB401) was diluted 1:10 with LB medium (containing 10 μg/mL tetracycline). A 200-μL portion of the diluted culture was added to each well of the plate. Plates were grown at 30° C. with shaking (200 rpm) until the OD600=0.35-0.4 (6-8 h). Luminescence then was measured and normalized to cell density per well. […] All assays were performed in triplicate.
# elastase B production = experiment: microbe, parasite or virus in culture; format: cell-based, Pseudomonas aeruginosa; conditions: P. aeruginosa PAO1; 200 μM
# Method: Elastase B production assay in P. aeruginosa. Elastase B activity in P. aeruginosa was measured according to a previously reported method, with the following modifications. P. aeruginosa PAO1 was grown overnight in LB media at 37° C., after which it was diluted to an OD600=0.1. Portions (2 mL) of this culture was added to test tubes containing synthetic compounds to give final concentrations of 20 μM or 200 μM and incubated for 12-14 h at 37° C. with 200 rpm shaking. The OD600 was measured for each tube, after which the contents of the tubes were filtered through a […] Whatman filter to remove all cellular matter. A 100 μL-aliquot of the supernatant was added to 900 μL of an Elastin Congo Red Solution (5 mg of Elastin Congo red substrate per 1 mL of 100 mM Tris-HCl, 1 mM CaCl2 (pH 7.2)) and incubated for 12 h at 37° C. with 250 rpm shaking. The contents of these tubes were then filtered in order to remove unreacted Elastin Congo red substrate. Elastase B activity was then calculated (normalized) by dividing the absorbance of the cleaved Congo red (OD492) by the cell density (OD600 of the cells before first filtration).
# Elastase B production assay in P. aeruginosa. Elastase B activity in P. aeruginosa was measured according to a previously reported method, with the following modifications. P. aeruginosa PAO1 was grown overnight at 37° C. and then diluted 1:10 with fresh LB medium. Portions (2 mL) of this culture were added to test tubes containing synthetic compounds to give final compound concentrations of 20 μM or 200 μM. The tubes were incubated for 12-14 h at 37° C. The OD600 was measured for each tube, after which the contents of the tubes were filtered through a 0.2 μm Whatman filter to remove all cellular matter. A 100 μL aliquot of the supernatant was added to 900 μL of an elastin-Congo red solution (5 mg of elastin-Congo red substrate per 1 mL of buffer (100 mM Tris-HCl, 1 mM CaCl2, pH 7.2)) and incubated for 12 h at 37° C. with 250 rpm shaking. The contents of these tubes were then filtered in order to remove unreacted elastin-Congo red substrate, and the supernatant containing cleaved Congo red was isolated. A 200 μL aliquot of the supernatant was added to a 96-well multititer plate, and the OD492 was measured. Elastase B activity was calculated by dividing the absorbance of the cleaved Congo red solution (OD492) by the cell density (OD600 of the cells before first filtration).
# T1 sequence (P35327 whole entry): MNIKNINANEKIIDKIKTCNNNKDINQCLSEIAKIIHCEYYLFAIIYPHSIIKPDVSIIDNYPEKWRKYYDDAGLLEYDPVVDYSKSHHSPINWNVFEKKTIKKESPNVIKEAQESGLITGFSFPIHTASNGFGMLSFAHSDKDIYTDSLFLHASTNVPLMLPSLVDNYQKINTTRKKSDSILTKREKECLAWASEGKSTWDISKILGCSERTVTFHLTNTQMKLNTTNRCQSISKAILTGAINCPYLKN
# T3 sequence (P33905 whole entry): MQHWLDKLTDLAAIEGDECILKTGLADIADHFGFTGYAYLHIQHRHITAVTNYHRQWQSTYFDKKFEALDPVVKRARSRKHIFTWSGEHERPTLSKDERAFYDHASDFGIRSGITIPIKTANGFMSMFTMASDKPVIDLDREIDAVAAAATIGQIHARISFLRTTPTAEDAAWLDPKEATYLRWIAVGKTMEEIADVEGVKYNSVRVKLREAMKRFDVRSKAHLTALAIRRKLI
# T2 sequence (P25084 whole entry): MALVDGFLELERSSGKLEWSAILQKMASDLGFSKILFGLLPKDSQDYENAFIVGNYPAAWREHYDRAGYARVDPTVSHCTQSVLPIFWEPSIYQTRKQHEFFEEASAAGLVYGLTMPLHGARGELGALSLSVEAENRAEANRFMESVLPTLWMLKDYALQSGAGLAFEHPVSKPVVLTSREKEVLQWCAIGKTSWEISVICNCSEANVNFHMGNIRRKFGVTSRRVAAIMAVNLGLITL
# T4 sequence (P12746 whole entry): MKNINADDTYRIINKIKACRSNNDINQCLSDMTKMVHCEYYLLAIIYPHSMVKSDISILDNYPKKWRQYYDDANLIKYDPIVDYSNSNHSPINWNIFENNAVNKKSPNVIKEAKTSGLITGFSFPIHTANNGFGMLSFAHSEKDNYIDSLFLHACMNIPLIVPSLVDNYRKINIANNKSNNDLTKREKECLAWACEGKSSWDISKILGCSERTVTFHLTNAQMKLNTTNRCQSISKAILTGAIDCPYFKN
# QscR:DNA binding (PA1897 promoter), sequence (G3XD77 entry or part of it): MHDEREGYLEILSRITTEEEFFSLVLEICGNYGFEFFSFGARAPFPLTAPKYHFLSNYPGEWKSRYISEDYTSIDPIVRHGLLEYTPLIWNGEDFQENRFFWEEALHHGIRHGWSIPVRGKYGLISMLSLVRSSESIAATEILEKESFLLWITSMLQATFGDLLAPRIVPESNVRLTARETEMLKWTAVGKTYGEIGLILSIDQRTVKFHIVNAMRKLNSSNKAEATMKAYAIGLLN
smiles,measurement,setting,value
"O=C(Cc1cccc([N+](=O)[O-])c1)N[C@H]1CCOC1=O [11n, N-(3-nitro-phenylacetanoyl)-L-homoserine lactone]",V. fischeri-LuxR Inhibition [%],"LuxR [1]; 5 μM synthetic ligand against 5 μM OHHL, V. fischeri ES114 (Δ-luxI), normalized to OHHL",no inhibitory activity
same,luminescence / activity in Δ-luxR derivative of V. fischeri ES114,[2],Neither 11n nor OHHL induced any detectable luminescence
same,EC50 lower / activity higher relative to OHHL,LuxR [3]; LuxR,10 fold
same,EC50,LuxR [3],0.3 µM
same,luminescence induced higher than native ligand OHHL,"LuxR [3]; primary agonism assay, 200 μM, same concentration as OHHL",29%
same,activation at 200 µM,"LuxR [3]; read-out: V. fischeri-LuxR Activation [%], 200 μM ligand, V. fischeri ES114 (Δ-luxI), normalized to OHHL",≥ 60%
same,activity in wild-type V. fischeri,[4],similarly heightened activity
same,activity / modulation of quorum sensing in vivo,Euprymna scolopes squid,active in vivo
same,tolerance in squid / invertebrate model systems,Euprymna scolopes squid,well tolerated
CCOc1ccc(CC(=O)N[C@H]2CCOC2=O)cc1 [C25],inhibition of OdDHL-dependent QscR:DNA binding,[5],capable of inhibiting OdDHL (1)-dependent QscR:DNA binding
same,Inhibition (%),LasR [6],15%
same,Activation (%),"TraR; A. tumefaciens-TraR, Library C primary agonism screen",0%
same,Inhibition (%),"TraR; A. tumefaciens-TraR, Library C primary antagonism screen",35%
same,Inhibition (%),"LuxR [1]; V. fischeri-LuxR, Library C primary antagonism screen",55%
same,Activation (%),"LuxR [3]; V. fischeri-LuxR, Library C primary agonism screen",2%
same,Activation (%),LasR [7],0%
"CCCC(=O)CC(=O)N[C@H]1CCOC1=O [compound 3, N-(3-oxo-hexanoyl)-L-homoserine lactone, reference compound]",EC50,LuxR [8],~0.01 µM and 0.02 µM
same,EC50,LuxR [3],3 µM and ~5 µM
"O=C(CCCc1c[nH]c2ccccc12)N[C@H]1CCOC1=O [compound 9, indole AHL, reference compound]",A. tumefaciens-TraR Activation [%],"TraR; 10 μM ligand, A. tumefaciens WCF47 (pCF372), normalized to OOHL",0%
same,elastase B production inhibition,elastase B production,66%
